Data as given in patent publication US20160101148A1, “TREATMENT AND PREVENTION OF BACTERIAL SKIN INFECTIONS USING ORITAVANCIN” (priority 2013, published 2016).
In brackets after ≈: the same amount, converted by molar mass.

Columns and labels:
[1] = test system: ABSSSI suspected or proven to be due to a gram-positive pathogen, including MRSA; test: SOLO I Phase 3 trial, efficacy: single dose IV oritavancin versus IV vancomycin for 7 to 10 days; type: in vivo, human; settings: for Difference in lesion size reduction ≧20% rate (oritavancin minus vancomycin) / Difference in primary efficacy endpoint rate (oritavancin minus vancomycin): ECE; for Lesion Size Reduction ≧20% From Baseline / Primary efficacy endpoint response rate (cessation of spread, absence of fever, no rescue antibiotics): ECE 48 to 72 hours; for Difference in investigator-assessed clinical cure rate (oritavancin minus vancomycin) / Difference in sustained clinical cure rate (oritavancin minus vancomycin): PTE; for Investigator-Assessed Clinical Cure / Sustained Clinical Cure: PTE 7 to 14 days after EOT
Protocol: The primary efficacy endpoint comprised: 1) cessation of spreading or reduction in the size of the baseline lesion, 2) absence of fever, and 3) no rescue antibiotic, at 48 to 72 hours, for the modified intent to treat population.
The study design was consistent with current guidelines from FDA (U.S. Food and Drug Administration. Guidance for Industry Acute Bacterial Skin and Skin Structure Infections: Developing Drugs for Treatment (DRAFT GUIDANCE). Available via Internet at the URL containing: fda.gov/downloads/Drugs/GuidanceComplianceRegulatoryInformation/Guidances/ucm071185.p df) and EMA (European Medicines Agency Committee for Medicinal Products for Human Use. Addendum to the note for guidance on evaluation of medicinal products indicated for treatment of bacterial infections (CHMP/EWP/558/95 REV 2) to address indication-specific clinical data (draft). 2012. Available via Internet at the URL containing: ema.europa.eu/docs/en_GB/document_library/Scientific_guideline/2012/07/WC500129443.pdf) and Foundation for National Institutes of Health guidance was considered for analyses (Talbot G H etl. Clin Infect Dis. 2012. 55(8):1114-1121). The protocol was approved by institutional review boards/ethics committees and all patients provided written informed consent. The study was conducted from January 2011 through October 2012 at 46 study centers in Mexico, Spain, Germany, Romania, Russia, Ukraine, Israel, India, and the United States. […] Aztreonam and metronidazole were permitted for gram-negative and anaerobic cover, respectively.
Clinical evaluations were performed at the following time points: Early Clinical Evaluation (ECE) at 48 to 72 hours after the initiation of the study drug infusion, End of Therapy (EOT) at Day 7 to Day 10 or the day the patient stopped study drug or changed to non-study drug therapy for primary ABSSSI, Day 10 Evaluation defined as 10 days after the initiation of the study drug infusion, Post Therapy Evaluation (PTE) at 7 to 14 days after the EOT visit, and Safety Follow-up at 60 days (+7 days) after the initiation of the study drug infusion. Safety data was reviewed by a data monitoring committee.
Eligible patients were to be at least 18 years of age with diagnosis of ABSSSI that was suspected or proven to be due to a gram-positive pathogen and which required at least 7 days of IV therapy. The diagnosis of ABSSSI was defined as wound infections (either traumatic or surgical in origin), cellulitis/erysipelas or major cutaneous abscess with surrounding erythema, edema, and/or induration of at least 75 cm^2. The onset of wound infections or cellulitis/erysipelas must have occurred within 7 days prior to randomization. Patients also had to present with signs and symptoms of systemic inflammation. Patients were not eligible to participate if they received systemic or topical antibacterial therapy with gram-positive activity within the preceding 14 days.
The primary efficacy endpoint was a composite outcome of 1) cessation of spreading or reduction in the size of the baseline lesion, 2) absence of fever, and 3) no rescue antibiotic medication at the ECE visit, for the mITT population.
The secondary efficacy outcomes were as follows: 1) Lesion area decrease by ≧20% from Baseline at ECE, 2) Investigator-Assessed Clinical Response at PTE, 3) Sustained Clinical Response at PTE.
The analyses were performed for patients who had lesion area assessments at baseline and ECE using the mITT and CE populations.
If a patient had clinical failure assessed beyond the PTE visit window, the patient was considered as a clinical failure. If a patient had clinical success assessed beyond the PTE visit window, a) and if the patient had clinical failure before the PTE visit, the patient was considered a clinical failure at PTE or b) if the patient had clinical success also before the PTE visit, the patient was considered a clinical success at PTE.

[2] = test system: S. aureus strains (14 mecC MRSA, 2 mecA MRSA, ATCC 29213 MSSA); test: Broth microdilution MIC determination; type: cell-based, Staphylococcus aureus
Protocol: The S. aureus (SA) strains used in this study were: ATCC 43300 (mecA methicillin-resistant SA [MRSA]); ATCC 33591 (mecA MRSA), ATCC 29213 (methicillin-susceptible SA; quality control strain) and 14 mecC MRSA obtained from the Staten Serum Institute (Copenhagen, Denmark).
Tests with oritavancin included polysorbate-80 (final test concentration of 0.002%) as described (CLSI 2012a; Arhin et al., 2008). Tests with daptomycin included CaCl2 at a concentration of 50 mg/L. MICs were read after 24 h incubation.

## CN[C@H](CC(C)C)C(=O)N[C@H]1C(=O)N[C@@H](CC(N)=O)C(=O)N[C@H]2C(=O)N[C@H]3C(=O)N[C@H](C(=O)N[C@H](C(=O)O)c4cc(O)cc(O)c4-c4cc3ccc4O)[C@H](O[C@H]3C[C@](C)(N)[C@@H](O)[C@H](C)O3)c3ccc(c(Cl)c3)Oc3cc2cc(c3O[C@@H]2O[C@H](CO)[C@@H](O)[C@H](O)[C@H]2O[C@H]2C[C@](C)(NCc3ccc(-c4ccc(Cl)cc4)cc3)[C@@H](O)[C@H](C)O2)Oc2ccc(cc2Cl)[C@H]1O [Oritavancin, N^DISACC-(4-(4-chlorophenyl)benzyl)A82846B]
[1]; 10% non-inferiority margin
  Efficacy versus vancomycin for ECE and PTE endpoints: non-inferior to vancomycin
[1]; CE population
  Patients both early treatment responders (lesion size reduction of ≧20% at ECE) and clinical successes at PTE: more than 84%
[1]; CE
  Difference in lesion size reduction ≧20% rate (oritavancin minus vancomycin): 1.9%
  Difference in primary efficacy endpoint rate (oritavancin minus vancomycin): 1.2%
  Lesion Size Reduction ≧20% From Baseline: 90.6%
  Primary efficacy endpoint response rate (cessation of spread, absence of fever, no rescue antibiotics): 87.3%
  Difference in investigator-assessed clinical cure rate (oritavancin minus vancomycin): −1.3%
  Difference in sustained clinical cure rate (oritavancin minus vancomycin): −3.9%
  Investigator-Assessed Clinical Cure: 91.9%
  Sustained Clinical Cure: 79.4%
[1]; MRSA MicroE
  Difference in lesion size reduction ≧20% rate (oritavancin minus vancomycin): 7.5%
  Difference in primary efficacy endpoint rate (oritavancin minus vancomycin): 1.8%
  Lesion Size Reduction ≧20% From Baseline: 96.5%
  Primary efficacy endpoint response rate (cessation of spread, absence of fever, no rescue antibiotics): 88.4%
  Difference in investigator-assessed clinical cure rate (oritavancin minus vancomycin): −2.2%
  Difference in sustained clinical cure rate (oritavancin minus vancomycin): −2.8%
  Investigator-Assessed Clinical Cure: 95.3%
  Sustained Clinical Cure: 81.4%
[1]; MRSA MicroITT
  Difference in lesion size reduction ≧20% rate (oritavancin minus vancomycin): 6.4%
  Difference in primary efficacy endpoint rate (oritavancin minus vancomycin): 0.8%
  Lesion Size Reduction ≧20% From Baseline: 90.4%
  Primary efficacy endpoint response rate (cessation of spread, absence of fever, no rescue antibiotics): 80.8%
  Difference in investigator-assessed clinical cure rate (oritavancin minus vancomycin): −0.3%
  Difference in sustained clinical cure rate (oritavancin minus vancomycin): −0.7%
  Investigator-Assessed Clinical Cure: 82.7%
  Sustained Clinical Cure: 68.3%
[1]; MRSA MicroITT, listed as oritavancin
  Lesion Size Reduction ≧20% From Baseline: 90.4%
[1]; mITT
  Difference in lesion size reduction ≧20% rate (oritavancin minus vancomycin): 4.1%
  Difference in primary efficacy endpoint rate (oritavancin minus vancomycin): 3.4%
  Lesion Size Reduction ≧20% From Baseline: 86.9%
  Primary efficacy endpoint response rate (cessation of spread, absence of fever, no rescue antibiotics): 82.3%
  Difference in investigator-assessed clinical cure rate (oritavancin minus vancomycin): −0.4%
  Difference in sustained clinical cure rate (oritavancin minus vancomycin): −2.6%
  Investigator-Assessed Clinical Cure: 79.6%
  Sustained Clinical Cure: 67.2%
[1]; mITT, listed as oritavancin
  Lesion Size Reduction ≧20% From Baseline: 86.9%
  Primary efficacy endpoint response rate (cessation of spread, absence of fever, no rescue antibiotics): 82.3%
  Investigator-Assessed Clinical Cure: 79.6%
  Sustained Clinical Cure: 67.2%
[2]; Staphylococcus aureus
  MIC90: 0.06 µg/mL (≈ 0.0335 µM)
[2]; Staphylococcus aureus, 57147 MRSA (mecC)
  MIC: 0.03 µg/mL (≈ 0.0167 µM)
[2]; Staphylococcus aureus, 70611 MRSA (mecC)
  MIC: 0.06 µg/mL (≈ 0.0335 µM)
[2]; Staphylococcus aureus, 73348 MRSA (mecC)
  MIC: 0.06 µg/mL (≈ 0.0335 µM)
[2]; Staphylococcus aureus, 73415 MRSA (mecC)
  MIC: 0.06 µg/mL (≈ 0.0335 µM)
[2]; Staphylococcus aureus, 73617 MRSA (mecC)
  MIC: 0.03 µg/mL (≈ 0.0167 µM)
[2]; Staphylococcus aureus, 73829 MRSA (mecC)
  MIC: 0.03 µg/mL (≈ 0.0167 µM)
[2]; Staphylococcus aureus, 75814 MRSA (mecC)
  MIC: 0.06 µg/mL (≈ 0.0335 µM)
[2]; Staphylococcus aureus, 76918 MRSA (mecC)
  MIC: 0.03 µg/mL (≈ 0.0167 µM)
[2]; Staphylococcus aureus, 77431 MRSA (mecC)
  MIC: 0.03 µg/mL (≈ 0.0167 µM)
[2]; Staphylococcus aureus, 77601 MRSA (mecC)
  MIC: 0.03 µg/mL (≈ 0.0167 µM)
[2]; Staphylococcus aureus, 77950 MRSA (mecC)
  MIC: 0.03 µg/mL (≈ 0.0167 µM)
[2]; Staphylococcus aureus, 77964 MRSA (mecC)
  MIC: 0.06 µg/mL (≈ 0.0335 µM)
[2]; Staphylococcus aureus, 78085 MRSA (mecC)
  MIC: 0.06 µg/mL (≈ 0.0335 µM)
[2]; Staphylococcus aureus, 78651 MRSA (mecC)
  MIC: 0.06 µg/mL (≈ 0.0335 µM)
[2]; Staphylococcus aureus, ATCC 29213 (MSSA)
  MIC: 0.06 µg/mL (≈ 0.0335 µM)
[2]; Staphylococcus aureus, ATCC 29213 / ATCC 33591 / MRSA / MSSA, ATCC 33591 MRSA (mecA)
  MIC: 0.06 µg/mL (≈ 0.0335 µM)
[2]; Staphylococcus aureus, ATCC 29213 / ATCC 43300 / MRSA / MSSA, ATCC 43300 MRSA (mecA)
  MIC: 0.06 µg/mL (≈ 0.0335 µM)
[2]; Staphylococcus aureus, QC and mecA strains
  MIC: 0.06 µg/mL (≈ 0.0335 µM)
[2]; mecC strains
  MIC range: 0.03 to 0.06 µg/mL
